{
  "source": "BindingDB's records for doi:10.1074/jbc.M113.507525",
  "about": "(Western University, 2013)",
  "experiment_in_all_cases": "SelectScreen Biochemical Kinase Assay",
  "key": {"[1]": {"biological_target": "DNA-dependent protein kinase catalytic subunit (Mus musculus, UniProt P97313)", "method": "(§1) Biochemical in vitro lipid kinase assays were performed by the SelectScreen biochemical kinase assay service (Invitrogen Ltd.). A stock solution of GS-9820 was prepared in DMSO at a concentration of 10 mM. Ten-point kinase inhibitory activities were measured over a concentration range (5 to 10^4 nM) with ATP at a concentration consistent with the Km of each of the enzymes."}, "[2]": {"biological_target": "Phosphatidylinositol 4,5-bisphosphate 3-kinase catalytic subunit alpha isoform (Mus musculus, UniProt P42337)", "sequence (P42337 whole entry, canonical isoform)": "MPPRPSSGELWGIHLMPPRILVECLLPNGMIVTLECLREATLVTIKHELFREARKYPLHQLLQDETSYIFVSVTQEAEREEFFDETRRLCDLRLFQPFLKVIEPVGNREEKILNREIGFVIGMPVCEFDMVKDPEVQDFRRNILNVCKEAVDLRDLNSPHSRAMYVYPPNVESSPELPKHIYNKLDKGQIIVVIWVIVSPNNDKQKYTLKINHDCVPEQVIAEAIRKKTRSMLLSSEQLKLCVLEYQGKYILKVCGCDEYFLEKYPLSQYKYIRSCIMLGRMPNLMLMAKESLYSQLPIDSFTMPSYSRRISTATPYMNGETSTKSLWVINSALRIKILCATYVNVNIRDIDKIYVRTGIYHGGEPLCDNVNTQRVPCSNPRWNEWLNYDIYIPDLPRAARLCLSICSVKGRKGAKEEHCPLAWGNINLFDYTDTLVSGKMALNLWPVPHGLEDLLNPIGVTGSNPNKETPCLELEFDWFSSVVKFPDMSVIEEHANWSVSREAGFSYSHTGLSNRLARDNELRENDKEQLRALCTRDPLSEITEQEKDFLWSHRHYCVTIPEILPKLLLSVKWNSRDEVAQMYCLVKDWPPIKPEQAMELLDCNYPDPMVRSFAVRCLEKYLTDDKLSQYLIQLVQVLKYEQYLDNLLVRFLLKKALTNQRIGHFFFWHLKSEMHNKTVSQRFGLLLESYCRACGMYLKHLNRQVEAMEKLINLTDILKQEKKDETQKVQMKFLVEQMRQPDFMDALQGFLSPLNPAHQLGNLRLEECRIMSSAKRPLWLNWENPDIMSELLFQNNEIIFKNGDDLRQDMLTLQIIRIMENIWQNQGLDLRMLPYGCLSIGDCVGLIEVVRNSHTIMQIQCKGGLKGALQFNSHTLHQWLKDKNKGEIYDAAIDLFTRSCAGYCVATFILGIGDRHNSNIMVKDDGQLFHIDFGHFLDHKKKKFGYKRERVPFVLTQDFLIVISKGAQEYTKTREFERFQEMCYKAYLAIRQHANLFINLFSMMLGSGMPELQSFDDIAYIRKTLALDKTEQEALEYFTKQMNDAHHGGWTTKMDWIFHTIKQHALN", "method": "as §1"}, "[3]": {"biological_target": "Phosphatidylinositol 4,5-bisphosphate 3-kinase catalytic subunit beta isoform (Mus musculus, UniProt Q8BTI9)", "sequence (Q8BTI9 whole entry, canonical isoform)": "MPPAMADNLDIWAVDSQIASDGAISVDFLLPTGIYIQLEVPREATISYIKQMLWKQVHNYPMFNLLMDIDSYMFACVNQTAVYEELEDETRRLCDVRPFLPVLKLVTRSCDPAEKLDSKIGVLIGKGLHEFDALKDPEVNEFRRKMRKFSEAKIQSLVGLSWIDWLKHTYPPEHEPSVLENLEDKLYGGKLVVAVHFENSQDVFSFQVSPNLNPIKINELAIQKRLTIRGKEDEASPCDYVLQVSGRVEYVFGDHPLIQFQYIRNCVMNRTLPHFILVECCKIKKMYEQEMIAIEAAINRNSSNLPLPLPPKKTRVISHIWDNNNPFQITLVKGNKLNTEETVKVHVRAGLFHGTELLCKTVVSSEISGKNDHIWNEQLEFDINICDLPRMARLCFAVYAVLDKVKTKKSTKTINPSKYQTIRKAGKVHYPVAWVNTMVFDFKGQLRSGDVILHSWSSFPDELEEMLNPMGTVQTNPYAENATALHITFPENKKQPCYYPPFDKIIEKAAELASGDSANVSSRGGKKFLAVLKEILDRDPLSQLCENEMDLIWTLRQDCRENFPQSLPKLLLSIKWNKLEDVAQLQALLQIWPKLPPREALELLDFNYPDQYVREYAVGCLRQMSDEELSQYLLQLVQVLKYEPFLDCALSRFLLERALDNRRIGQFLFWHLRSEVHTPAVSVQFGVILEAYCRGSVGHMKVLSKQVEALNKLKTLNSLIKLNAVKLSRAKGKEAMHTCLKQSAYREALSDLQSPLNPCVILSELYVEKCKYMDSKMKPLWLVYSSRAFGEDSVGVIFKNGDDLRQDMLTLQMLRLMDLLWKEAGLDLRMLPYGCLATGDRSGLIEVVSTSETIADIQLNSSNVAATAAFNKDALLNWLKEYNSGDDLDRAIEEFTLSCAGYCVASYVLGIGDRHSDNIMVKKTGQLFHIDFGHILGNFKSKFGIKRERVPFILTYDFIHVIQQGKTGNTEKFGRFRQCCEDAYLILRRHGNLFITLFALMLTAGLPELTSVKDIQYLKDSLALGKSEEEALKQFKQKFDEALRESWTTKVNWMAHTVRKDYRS", "method": "as §1"}, "[4]": {"biological_target": "T1, Phosphatidylinositol 4,5-bisphosphate 3-kinase catalytic subunit delta isoform (Mus musculus, UniProt O35904)", "T1 sequence (O35904 whole entry)": "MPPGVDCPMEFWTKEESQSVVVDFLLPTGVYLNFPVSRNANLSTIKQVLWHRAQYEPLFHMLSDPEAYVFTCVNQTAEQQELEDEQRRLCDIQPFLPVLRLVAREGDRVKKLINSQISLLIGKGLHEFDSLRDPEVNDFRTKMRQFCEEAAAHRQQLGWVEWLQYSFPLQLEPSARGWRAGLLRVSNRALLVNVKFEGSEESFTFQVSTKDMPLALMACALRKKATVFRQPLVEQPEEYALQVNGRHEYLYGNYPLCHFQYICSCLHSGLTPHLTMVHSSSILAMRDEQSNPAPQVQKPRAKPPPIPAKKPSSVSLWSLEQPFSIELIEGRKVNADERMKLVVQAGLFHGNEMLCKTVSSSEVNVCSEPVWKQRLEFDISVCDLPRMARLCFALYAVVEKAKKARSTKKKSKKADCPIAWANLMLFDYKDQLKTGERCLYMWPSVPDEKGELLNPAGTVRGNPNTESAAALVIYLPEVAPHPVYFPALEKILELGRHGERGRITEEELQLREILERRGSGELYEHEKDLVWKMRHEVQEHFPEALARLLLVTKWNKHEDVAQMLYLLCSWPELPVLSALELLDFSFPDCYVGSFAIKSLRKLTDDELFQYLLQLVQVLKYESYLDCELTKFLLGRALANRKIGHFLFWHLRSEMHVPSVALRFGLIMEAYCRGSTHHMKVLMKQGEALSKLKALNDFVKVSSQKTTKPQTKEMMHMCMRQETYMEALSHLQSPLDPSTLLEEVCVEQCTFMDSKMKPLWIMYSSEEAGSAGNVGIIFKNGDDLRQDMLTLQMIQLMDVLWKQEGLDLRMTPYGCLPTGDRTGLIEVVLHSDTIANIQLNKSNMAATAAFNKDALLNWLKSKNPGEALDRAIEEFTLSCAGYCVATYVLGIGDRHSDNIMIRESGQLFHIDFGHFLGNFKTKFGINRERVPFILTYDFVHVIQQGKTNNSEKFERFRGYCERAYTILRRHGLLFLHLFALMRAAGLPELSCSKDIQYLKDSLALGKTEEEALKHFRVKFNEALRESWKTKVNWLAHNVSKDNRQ", "method": "as §1"}, "[5]": {"biological_target": "Phosphatidylinositol 4,5-bisphosphate 3-kinase catalytic subunit gamma isoform (Mus musculus, UniProt Q9JHG7)", "sequence (Q9JHG7 whole entry, canonical isoform)": "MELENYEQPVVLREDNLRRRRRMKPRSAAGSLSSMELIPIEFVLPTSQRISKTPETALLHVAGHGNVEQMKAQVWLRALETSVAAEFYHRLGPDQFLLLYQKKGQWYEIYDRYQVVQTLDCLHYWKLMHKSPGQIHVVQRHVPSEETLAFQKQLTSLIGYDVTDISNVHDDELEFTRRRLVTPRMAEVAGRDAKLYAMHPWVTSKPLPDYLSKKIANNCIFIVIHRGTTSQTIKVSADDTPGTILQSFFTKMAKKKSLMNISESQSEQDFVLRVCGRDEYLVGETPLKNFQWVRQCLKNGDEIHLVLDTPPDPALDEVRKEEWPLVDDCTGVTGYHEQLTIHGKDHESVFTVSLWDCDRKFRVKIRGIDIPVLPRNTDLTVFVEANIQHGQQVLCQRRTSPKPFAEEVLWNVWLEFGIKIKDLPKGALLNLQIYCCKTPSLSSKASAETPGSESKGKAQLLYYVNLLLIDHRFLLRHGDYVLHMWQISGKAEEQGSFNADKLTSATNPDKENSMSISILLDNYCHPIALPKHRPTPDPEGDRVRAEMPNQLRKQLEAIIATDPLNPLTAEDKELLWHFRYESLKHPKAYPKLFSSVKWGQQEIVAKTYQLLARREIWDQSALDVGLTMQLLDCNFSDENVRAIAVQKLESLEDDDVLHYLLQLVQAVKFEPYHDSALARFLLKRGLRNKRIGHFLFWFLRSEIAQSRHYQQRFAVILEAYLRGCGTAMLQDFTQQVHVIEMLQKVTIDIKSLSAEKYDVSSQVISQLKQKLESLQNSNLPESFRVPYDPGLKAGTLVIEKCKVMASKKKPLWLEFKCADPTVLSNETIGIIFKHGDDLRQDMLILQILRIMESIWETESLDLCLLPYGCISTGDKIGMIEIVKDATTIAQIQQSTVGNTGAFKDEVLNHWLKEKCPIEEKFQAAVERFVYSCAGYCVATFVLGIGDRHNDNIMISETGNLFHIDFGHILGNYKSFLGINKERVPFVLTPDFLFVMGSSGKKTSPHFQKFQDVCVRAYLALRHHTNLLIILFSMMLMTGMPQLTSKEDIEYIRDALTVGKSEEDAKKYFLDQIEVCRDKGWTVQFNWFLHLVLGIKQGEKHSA", "method": "as §1"}, "[6]": {"biological_target": "Phosphatidylinositol 4-phosphate 5-kinase type-1 alpha (Mus musculus, UniProt P70182)", "sequence (P70182 whole entry)": "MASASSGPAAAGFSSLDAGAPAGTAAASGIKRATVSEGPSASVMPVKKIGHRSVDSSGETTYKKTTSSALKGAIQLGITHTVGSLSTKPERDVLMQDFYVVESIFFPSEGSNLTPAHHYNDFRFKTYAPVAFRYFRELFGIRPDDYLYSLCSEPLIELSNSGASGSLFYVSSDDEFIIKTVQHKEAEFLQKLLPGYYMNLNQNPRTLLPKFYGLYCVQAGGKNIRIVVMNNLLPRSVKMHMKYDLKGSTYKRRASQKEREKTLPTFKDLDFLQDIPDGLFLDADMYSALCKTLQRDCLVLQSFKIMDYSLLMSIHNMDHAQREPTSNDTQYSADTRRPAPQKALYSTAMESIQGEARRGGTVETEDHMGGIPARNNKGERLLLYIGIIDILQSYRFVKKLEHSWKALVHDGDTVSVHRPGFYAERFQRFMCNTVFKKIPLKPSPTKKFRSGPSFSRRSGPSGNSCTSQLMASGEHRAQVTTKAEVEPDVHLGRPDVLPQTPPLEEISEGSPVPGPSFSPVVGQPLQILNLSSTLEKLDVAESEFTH", "method": "as §1"}, "[7]": {"biological_target": "Phosphatidylinositol 4-phosphate 5-kinase type-1 beta (Mus musculus, UniProt P70181)", "sequence (P70181 whole entry)": "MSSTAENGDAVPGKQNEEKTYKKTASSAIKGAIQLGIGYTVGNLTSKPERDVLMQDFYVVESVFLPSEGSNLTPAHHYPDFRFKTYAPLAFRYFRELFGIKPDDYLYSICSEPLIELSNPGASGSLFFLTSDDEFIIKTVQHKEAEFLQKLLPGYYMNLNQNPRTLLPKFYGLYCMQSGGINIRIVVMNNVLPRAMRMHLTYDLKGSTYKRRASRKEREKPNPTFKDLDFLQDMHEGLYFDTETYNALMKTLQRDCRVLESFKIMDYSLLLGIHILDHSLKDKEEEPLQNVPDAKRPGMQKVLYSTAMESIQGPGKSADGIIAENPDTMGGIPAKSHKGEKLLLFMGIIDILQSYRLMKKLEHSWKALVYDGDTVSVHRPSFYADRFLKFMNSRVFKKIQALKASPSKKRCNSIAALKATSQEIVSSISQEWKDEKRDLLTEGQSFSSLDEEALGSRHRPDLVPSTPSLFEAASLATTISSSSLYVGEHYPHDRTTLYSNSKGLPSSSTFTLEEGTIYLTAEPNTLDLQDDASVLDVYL", "method": "as §1"}},
  "data": [
    {"smiles": "C[C@H](Nc1ncnc2[nH]cnc12)c1nc2ccc(F)cc2c(=O)n1-c1ccccc1", "note": "[GS-9820]", "values": [
      {"measurement": "IC50", "setting": "[1]", "value": 18.7, "unit": "µM"},
      {"measurement": "IC50", "setting": "[2]", "value": 5.44, "unit": "µM"},
      {"measurement": "IC50", "setting": "[3]", "value": 3.38, "unit": "µM"},
      {"measurement": "IC50", "setting": "[4]", "value": 0.0127, "unit": "µM"},
      {"measurement": "IC50", "setting": "[5]", "value": 1.39, "unit": "µM"},
      {"measurement": "IC50", "setting": "[6]", "value": "> 10", "unit": "µM"},
      {"measurement": "IC50", "setting": "[7]", "value": "> 10", "unit": "µM"}
    ]}
  ]
}
